Measured values taken from article PMC9983627 (Drugs in Context, 2023).

Tests used:
Experiment in all cases: receptor-ligand binding
[1] = target: Human D2 (Homo sapiens, UniProt P14416); details: read-out: Ki (μM) / Human D2
[2] = target: T1, hD4 (Homo sapiens, UniProt P21917); details: given as a range
T1 sequence (P21917 1-419): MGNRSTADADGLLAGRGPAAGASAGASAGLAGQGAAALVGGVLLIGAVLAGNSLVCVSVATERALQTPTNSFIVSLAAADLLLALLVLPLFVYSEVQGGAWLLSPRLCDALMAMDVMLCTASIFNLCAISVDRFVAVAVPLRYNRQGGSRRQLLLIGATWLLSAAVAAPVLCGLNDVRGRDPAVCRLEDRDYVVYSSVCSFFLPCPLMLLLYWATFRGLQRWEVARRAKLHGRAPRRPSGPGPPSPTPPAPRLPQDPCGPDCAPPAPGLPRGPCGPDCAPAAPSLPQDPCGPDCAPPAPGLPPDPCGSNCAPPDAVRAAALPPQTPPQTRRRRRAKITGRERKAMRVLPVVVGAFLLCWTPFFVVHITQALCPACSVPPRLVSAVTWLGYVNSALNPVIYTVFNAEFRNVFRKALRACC

[3] = target: 5-HT2A (Homo sapiens, UniProt P28223)
[4] = target: T2, 5-HT2C (Homo sapiens, UniProt P28335)
T2 sequence (P28335 33-458): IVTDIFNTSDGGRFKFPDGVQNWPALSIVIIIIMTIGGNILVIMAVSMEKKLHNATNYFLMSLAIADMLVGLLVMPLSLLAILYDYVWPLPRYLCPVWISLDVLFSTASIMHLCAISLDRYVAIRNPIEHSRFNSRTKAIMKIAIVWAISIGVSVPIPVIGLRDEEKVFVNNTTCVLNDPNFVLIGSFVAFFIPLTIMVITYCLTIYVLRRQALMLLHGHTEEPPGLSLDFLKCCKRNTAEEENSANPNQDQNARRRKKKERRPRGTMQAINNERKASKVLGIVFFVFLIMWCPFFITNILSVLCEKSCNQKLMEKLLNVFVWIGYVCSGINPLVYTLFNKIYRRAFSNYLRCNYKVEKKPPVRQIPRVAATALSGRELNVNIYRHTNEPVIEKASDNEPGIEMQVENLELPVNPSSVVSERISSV

[5] = target: T3, m5-HT3 (Mus musculus, UniProt P23979); details: given as a range
T3 sequence (P23979 24-489): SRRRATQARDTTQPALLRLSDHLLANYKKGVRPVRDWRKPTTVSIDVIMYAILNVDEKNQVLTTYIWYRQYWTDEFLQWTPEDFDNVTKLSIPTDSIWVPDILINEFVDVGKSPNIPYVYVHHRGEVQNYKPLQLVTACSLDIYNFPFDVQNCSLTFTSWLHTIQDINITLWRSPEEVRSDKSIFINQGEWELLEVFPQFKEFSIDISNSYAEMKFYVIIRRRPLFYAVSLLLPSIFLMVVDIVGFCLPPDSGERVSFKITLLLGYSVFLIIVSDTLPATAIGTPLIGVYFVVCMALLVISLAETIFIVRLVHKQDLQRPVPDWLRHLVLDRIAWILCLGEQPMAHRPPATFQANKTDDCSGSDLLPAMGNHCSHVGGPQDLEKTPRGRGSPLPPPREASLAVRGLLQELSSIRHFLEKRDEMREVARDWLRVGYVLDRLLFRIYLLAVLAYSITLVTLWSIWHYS

[6] = target: Rat D2 (Rattus norvegicus, UniProt P61169); details: read-out: Ki (μM) / Rat D2
[7] = target: 5-HT2B (Homo sapiens, UniProt P41595)
[8] = target: h5-HT4B (Homo sapiens, UniProt Q13639)
Chain of h5-HT4B (Q13639 whole entry): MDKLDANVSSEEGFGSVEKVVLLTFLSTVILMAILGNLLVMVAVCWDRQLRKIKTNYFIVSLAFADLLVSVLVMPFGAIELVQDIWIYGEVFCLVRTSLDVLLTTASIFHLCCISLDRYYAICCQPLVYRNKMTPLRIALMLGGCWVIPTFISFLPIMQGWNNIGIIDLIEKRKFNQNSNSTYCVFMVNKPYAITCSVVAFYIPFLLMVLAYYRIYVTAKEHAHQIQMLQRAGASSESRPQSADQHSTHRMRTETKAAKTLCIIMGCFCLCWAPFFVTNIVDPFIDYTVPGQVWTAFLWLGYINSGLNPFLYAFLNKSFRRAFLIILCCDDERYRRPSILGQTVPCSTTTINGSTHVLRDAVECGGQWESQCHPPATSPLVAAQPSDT

Chain of Rat D2 (P61169 whole entry): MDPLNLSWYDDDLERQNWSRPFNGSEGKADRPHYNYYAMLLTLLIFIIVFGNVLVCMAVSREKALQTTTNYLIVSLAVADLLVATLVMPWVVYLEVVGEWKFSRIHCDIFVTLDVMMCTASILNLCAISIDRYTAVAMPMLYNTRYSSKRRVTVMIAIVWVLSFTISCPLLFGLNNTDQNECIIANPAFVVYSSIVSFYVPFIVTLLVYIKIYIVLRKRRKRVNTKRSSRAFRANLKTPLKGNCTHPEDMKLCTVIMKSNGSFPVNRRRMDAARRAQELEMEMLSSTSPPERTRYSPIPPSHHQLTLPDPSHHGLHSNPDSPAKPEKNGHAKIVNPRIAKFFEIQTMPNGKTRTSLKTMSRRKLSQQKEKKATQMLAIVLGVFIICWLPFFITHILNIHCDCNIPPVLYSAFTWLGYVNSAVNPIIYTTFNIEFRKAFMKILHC
Chain of Human D2 (P14416 whole entry): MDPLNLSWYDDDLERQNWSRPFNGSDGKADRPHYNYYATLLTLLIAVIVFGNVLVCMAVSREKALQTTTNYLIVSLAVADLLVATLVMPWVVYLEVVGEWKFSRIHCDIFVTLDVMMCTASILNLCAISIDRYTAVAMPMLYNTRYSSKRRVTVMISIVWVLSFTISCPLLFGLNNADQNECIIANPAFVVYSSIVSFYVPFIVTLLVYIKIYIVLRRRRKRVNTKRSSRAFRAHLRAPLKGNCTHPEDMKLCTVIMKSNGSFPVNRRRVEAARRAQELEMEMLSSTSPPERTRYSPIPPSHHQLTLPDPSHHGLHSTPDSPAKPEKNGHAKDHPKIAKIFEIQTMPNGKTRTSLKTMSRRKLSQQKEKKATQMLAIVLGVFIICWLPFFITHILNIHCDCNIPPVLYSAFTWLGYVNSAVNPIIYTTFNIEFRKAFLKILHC
Chain of 5-HT2A (P28223 whole entry): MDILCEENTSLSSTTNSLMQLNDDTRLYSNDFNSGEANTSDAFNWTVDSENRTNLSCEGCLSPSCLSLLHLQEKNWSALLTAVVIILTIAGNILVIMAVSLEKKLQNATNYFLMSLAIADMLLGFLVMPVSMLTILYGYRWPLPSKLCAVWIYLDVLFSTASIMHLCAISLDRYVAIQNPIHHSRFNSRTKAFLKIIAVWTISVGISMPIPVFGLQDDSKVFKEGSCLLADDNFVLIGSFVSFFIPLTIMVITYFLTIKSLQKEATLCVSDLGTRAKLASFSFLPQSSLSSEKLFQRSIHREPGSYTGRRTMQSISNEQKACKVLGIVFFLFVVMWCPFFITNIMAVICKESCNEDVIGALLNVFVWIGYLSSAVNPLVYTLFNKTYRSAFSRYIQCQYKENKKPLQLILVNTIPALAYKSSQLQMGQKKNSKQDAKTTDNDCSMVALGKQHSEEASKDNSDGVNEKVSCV
Chain of 5-HT2B (P41595 whole entry): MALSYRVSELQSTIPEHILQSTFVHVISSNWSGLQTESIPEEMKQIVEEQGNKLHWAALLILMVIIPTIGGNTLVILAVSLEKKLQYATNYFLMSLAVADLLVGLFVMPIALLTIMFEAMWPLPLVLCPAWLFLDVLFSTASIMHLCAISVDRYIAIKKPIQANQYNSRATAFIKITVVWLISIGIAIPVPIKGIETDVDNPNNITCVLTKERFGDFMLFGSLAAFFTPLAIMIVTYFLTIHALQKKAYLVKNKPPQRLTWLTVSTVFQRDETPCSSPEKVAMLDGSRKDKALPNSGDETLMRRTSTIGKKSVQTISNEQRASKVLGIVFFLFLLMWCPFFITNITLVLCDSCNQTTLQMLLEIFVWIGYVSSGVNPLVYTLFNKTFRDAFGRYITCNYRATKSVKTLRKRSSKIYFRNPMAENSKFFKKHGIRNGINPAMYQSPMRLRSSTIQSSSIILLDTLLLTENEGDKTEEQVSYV

Row | Ki [1] | Ki [2] | Ki [3] | Ki [4] | Ki [5] | Ki [6] | Ki [7] | Ki [8] | Structure (SMILES)
1 | 14 µM | 1.6 to 2.4 µM | 30 µM | 41 µM | 3.5 to 3.8 µM | 6 µM | – | – | COCCCN1CCC(NC(=O)c2cc(Cl)c(N)c3c2OCC3)CC1 [Prucalopride]
2 | 235 µM | – | 136 µM | 211 µM | – | 138 µM | 10 µM | 0.074 µM | Nc1c(Cl)cc(C(=O)NC2CCN(CCC(=O)O)CC2)c2c1CCO2 [R107504]
